Series [1] concerns the target T1, Cytochrome P450 1A2 (Homo sapiens, UniProt P05177).
T1 sequence (P05177 whole entry): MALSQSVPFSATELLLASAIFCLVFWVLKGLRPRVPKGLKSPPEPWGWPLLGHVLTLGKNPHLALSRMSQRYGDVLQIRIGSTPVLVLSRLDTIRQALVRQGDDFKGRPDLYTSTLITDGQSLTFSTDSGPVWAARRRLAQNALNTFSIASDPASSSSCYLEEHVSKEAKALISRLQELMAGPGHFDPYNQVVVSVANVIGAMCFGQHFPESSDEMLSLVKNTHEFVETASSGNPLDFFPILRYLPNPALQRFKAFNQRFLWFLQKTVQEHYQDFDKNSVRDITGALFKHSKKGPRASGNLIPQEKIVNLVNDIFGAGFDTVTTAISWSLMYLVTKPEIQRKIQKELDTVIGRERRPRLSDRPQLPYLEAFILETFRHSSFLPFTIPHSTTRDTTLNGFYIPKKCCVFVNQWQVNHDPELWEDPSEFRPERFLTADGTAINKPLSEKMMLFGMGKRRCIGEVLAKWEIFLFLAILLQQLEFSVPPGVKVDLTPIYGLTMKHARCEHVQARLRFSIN
The experiment in a line: Inhibition of CYP1A2 in human liver microsomes using phenacetin as substrate preincubated for 5 mins followed by NADPH addition measured after 10 mins by LC-MS/MS analysis. (In general: Liver microsomes are vesicles of endoplasmic reticulum, rich in cytochrome P450 enzymes.)

For series [2], the target named is Cytochrome P450 2C9 (Homo sapiens, UniProt P11712). Put plainly: Inhibition of CYP2C9 in human liver microsomes using diclofenac as substrate preincubated for 5 mins followed by NADPH addition measured after 10 mins by LC-MS/MS analysis.
Sequence of Cytochrome P450 2C9 (P11712 whole entry): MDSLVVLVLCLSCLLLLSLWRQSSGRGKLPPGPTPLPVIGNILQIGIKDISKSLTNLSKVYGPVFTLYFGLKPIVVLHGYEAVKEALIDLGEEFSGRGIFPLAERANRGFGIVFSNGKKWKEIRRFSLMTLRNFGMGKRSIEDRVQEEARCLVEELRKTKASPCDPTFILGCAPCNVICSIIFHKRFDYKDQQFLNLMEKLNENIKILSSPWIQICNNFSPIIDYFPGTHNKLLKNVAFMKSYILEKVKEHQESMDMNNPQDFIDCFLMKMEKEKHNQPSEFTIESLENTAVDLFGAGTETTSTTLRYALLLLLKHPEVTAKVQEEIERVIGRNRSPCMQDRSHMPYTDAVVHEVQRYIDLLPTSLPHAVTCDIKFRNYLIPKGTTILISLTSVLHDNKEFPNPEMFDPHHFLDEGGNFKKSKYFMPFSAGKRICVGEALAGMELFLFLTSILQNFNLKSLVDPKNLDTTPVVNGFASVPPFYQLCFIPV
The target of series [3] is Cytochrome P450 2C19 (Homo sapiens, UniProt P33261). Put plainly: Inhibition of CYP2C19 in human liver microsomes using (S)-mephenytoin as substrate preincubated for 5 mins followed by NADPH addition measured after 40 mins by LC-MS/MS analysis.
Sequence of Cytochrome P450 2C19 (P33261 whole entry): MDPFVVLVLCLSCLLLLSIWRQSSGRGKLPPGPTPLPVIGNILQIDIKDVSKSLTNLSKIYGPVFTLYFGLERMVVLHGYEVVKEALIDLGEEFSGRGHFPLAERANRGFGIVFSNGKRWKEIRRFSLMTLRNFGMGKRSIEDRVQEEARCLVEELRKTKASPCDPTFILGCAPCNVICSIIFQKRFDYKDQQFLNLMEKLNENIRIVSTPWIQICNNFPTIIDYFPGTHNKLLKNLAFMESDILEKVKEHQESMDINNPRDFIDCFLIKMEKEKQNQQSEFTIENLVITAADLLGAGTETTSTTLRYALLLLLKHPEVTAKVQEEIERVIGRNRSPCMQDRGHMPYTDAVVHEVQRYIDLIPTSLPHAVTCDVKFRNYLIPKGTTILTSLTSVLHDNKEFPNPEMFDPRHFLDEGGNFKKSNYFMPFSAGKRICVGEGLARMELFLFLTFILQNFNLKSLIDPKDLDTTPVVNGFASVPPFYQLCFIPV
For series [4], the target named is Cytochrome P450 3A4 (Homo sapiens, UniProt P08684). The experiment in a line: Inhibition of CYP3A4 in human liver microsomes using testosterone as substrate preincubated for 5 mins followed by NADPH addition measured after 10 mins by LC-MS/MS analysis.
Sequence of Cytochrome P450 3A4 (P08684 whole entry): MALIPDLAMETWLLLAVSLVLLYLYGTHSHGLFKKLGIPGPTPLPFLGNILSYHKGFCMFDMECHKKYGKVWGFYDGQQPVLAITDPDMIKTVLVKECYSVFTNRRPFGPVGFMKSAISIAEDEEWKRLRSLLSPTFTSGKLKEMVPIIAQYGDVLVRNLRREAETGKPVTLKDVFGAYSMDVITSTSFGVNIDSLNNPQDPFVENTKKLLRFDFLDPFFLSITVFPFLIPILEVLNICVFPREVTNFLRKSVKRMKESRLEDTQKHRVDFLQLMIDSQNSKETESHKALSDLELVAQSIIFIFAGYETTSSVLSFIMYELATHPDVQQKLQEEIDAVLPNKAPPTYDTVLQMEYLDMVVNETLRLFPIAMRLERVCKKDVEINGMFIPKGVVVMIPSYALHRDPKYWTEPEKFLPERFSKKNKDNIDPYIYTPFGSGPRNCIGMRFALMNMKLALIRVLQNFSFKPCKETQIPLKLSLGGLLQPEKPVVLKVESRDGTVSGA
Series [5] can be described thus: Cmax in mouse at 10 mg/kg, po. Type of series: ADME, organism-based. Also on record: dose 10 mg/kg, route oral. The note with it: in vivo.
Series [6] in a line: Tmax in mouse at 10 mg/kg, po. The note with it: in vivo. It is filed as ADME, organism-based.
A short description of series [7]: AUC (0 to 24 hrs) in mouse at 10 mg/kg, po. It is filed as ADME, organism-based. Details: dose 10 mg/kg, time < 24 hr, route oral. The note with it: in vivo, 24 h.
A short description of series [8]: Volume of distribution at steady state in mouse at 3 mg/kg, iv. It is filed as ADME, organism-based. The note with it: in vivo, read-out: Vdss.
The nature of series [9]: Half life in mouse at 3 mg/kg, iv. Conditions: in vivo. It is filed as ADME, organism-based.
Series [10] is described as follows: Oral bioavailability in mouse at 10 mg/kg. It is filed as ADME, organism-based. Conditions: in vivo.
In series [11] the test system is Mus musculus. The experiment in a line: Immunosuppressive activity in MOG (35 to 55 residues)/pertussis toxin-induced experimental allergic encephalomyelitis C57BL/6J mouse model assessed as reduction in disease severity score at 10 mg/kg, po qd measured at day 21 relative to dexamethasone. Type of series: functional. The note with it: 504 h.
In series [12] the test system is Mus musculus. The experiment in a line: Immunosuppressive activity in MOG (35 to 55 residues)/pertussis toxin-induced experimental allergic encephalomyelitis C57BL/6J mouse model assessed as IFN-gamma production of CNS infiltrating CD4+ Th1 cells at 10 mg/kg, po qd by intracellular staining method. Type of series: functional, organism-based.
Series [13] concerns Mus musculus. Put plainly: Immunosuppressive activity in MOG (35 to 55 residues)/pertussis toxin-induced experimental allergic encephalomyelitis C57BL/6J mouse model assessed as decrease in ratio of Th17:Th1 at 10 mg/kg, po qd by intracellular staining method. Type of series: functional, organism-based.
Series [14] can be described thus: Metabolic stability in mouse liver microsomes assessed as parent compound remaining at 1 uM preincubated for 5 mins followed by NADPH addition after 30 mins by LC-MS/MS analysis. Type of series: ADME, Microsome. Conditions: read-out: Stability.
Series [15] in a line: Metabolic stability in rat liver microsomes assessed as parent compound remaining at 1 uM preincubated for 5 mins followed by NADPH addition after 30 mins by LC-MS/MS analysis. Type of series: ADME, Microsome. The note with it: read-out: Stability.
Series [16] in a line: Metabolic stability in human liver microsomes assessed as parent compound remaining at 1 uM preincubated for 5 mins followed by NADPH addition after 30 mins by LC-MS/MS analysis. Type of series: ADME, Microsome. The note with it: read-out: Stability.
The species entered for series [17] is Mus musculus. The note with it: C57BL/6J, at 10 mg/kg.
Description: Immunosuppressive activity in MOG (35 to 55 residues)/pertussis toxin-induced experimental allergic encephalomyelitis C57BL/6J mouse model assessed as reduction in IL-17 production of CNS infiltrating CD4+ Th17 cells at 10 mg/kg, po qd by intracellular staining method

The source made the active and inactive calls. The rule behind the calls is not given here.

On to `CCS(=O)(=O)c1ccc(CC(=O)Nc2cc(Cl)c(-c3ccccc3OC(F)(F)F)c(Cl)c2)cc1`, for which the IC50 (as a rule, the point on the concentration scale where inhibition reaches its midpoint) in [1] was more than 50 µM; in [2] it was 2.1 µM; in [3] it was 9.6 µM; in series [4], more than 50 µM. In addition, in series [5], the Cmax (as a rule, the peak of the concentration-time curve) was 3000 nM. In addition, in [6], the time to peak (Tmax) (as a rule, the time from dosing to the highest level) amounted to 2 h. Also, the AUC – broadly, the area under the concentration-time curve, a measure of exposure – in series [7] was determined as 22.3 µM·h. Besides, the Vd in series [8] is 3.5 L/kg. In series [9], the half-life (as a rule, how long it takes for the measured level to halve) was 10.7 h. Also, the F in series [10] came out at 79%. Besides, the inhibition in vivo – broadly, how much of the control response was suppressed – at 10 mg/kg in series [11] was 24%. The inhibition entry in series [12] was “inactive”. Moreover, the inhibition entry in series [13] and in [17] was “Active” each time. Moreover, the remaining at 0.5 h, 1 µM in series [14] was 70%; in [15], 65%; in series [16], 100%.

(Values after ChEMBL document CHEMBL4346735, “Discovery and pharmacological evaluation of indole derivatives as potent and selective RORγt inverse agonist for multiple autoimmune conditions” (Bioorg Med Chem Lett, 2019).)
